Patent publication US9340492B2, “Meta-Diarylaniline or meta-diarylpyridinamine compound, preparation method and medical uses thereof” (INSTITUTE OF PHARMACOLOGY AND TOXICOLOGY ACADEMY OF …, priority 2012, dated 2016)
In brackets after ≈: the same amount, converted by molar mass.

How the values were obtained:
[1] = Incubation experiment of human liver microsomes; format: in vitro ADME; settings: for half-life: read-out: HLM t1/2
[2] = tested on: multi-drug resistant viral strain of HIV-1 RT (RTMDR); experiment: Activity against drug-resistant virus RTMDR; format: cell-based; settings: Human immunodeficiency virus 1, read-out: Drug-resistant viruses EC50, RTMDR
[3] = tested on: E138K drug-resistant virus; experiment: Activity against drug-resistant virus E138K; format: cell-based, HIV; settings: Human immunodeficiency virus 1, read-out: Drug-resistant viruses EC50, E138K
[4] = Water-solubility at pH2.0; format: physicochemical; settings: for solubility: aqueous medium (water) at pH 2.0, pH 2, simulated gastric fluid
NL4-3 virus = experiment: Anti-HIV activity assay (TZM-bl cell model), NL4-3 wild-type; format: cell-based; settings: Human immunodeficiency virus 1, NL43, TZM-bl, read-out: EC50, concentration effective to inhibit the replication of half of viruses
Procedure: (§1) The assay was carried out by reference to the document (Dang, Z, et al. J. Med. Chem. 2009, 52, 7887-7891). In particular, in a 96-well cell culture plate, solutions of the compounds to be tested at different concentrations were mixed with TZM-bl cells (from National Institutes of Health (NIH)) infected with 200 TCID50 NL4-3 virus, respectively. 2 days later, the culture medium was removed, 100 μl of Bright Glo reagent was added to each well, and Victor 2 luminometer was used to detect the […] of the cells.

[5] = tested on: NL4-3 virus (HIV, wild-type); experiment: as above; format: cell-based; settings: human, TZM-bl cells infected with HIV-1 NL4-3 virus; CC50 (TZM-bl) / EC50 (NL4-3); read-out: SI, selective index, ratio of toxic CC50 value to active EC50 value
Procedure: as §1

[6] = TZM-bl cytotoxicity assay (XTT); format: cell-based; settings: human, TZM-bl cells, read-out: CC50, concentration effective to inhibit the growth of half of cells
Procedure: The assay was carried out by reference to the document (Dang, Z, et al. J. Med. Chem. 2009, 52, 7887-7891). In particular, in a 96-well cell culture plate, solutions of Compounds 1-57 at different concentrations (100 μl) were mixed with an equivalent volume of TZM-bl cells (from National Institutes of Health (NIH)) (5×10^5/mL), and were incubated at 37° C. for 4 d. 50 μl of freshly prepared XTT solution (1 mg/mL) containing 0.02 μM PMS was added. Optical density at 450 nm was measured 4 h later.

[7] = tested on: K101E drug-resistant virus; experiment: Activity against drug-resistant virus K101E; format: cell-based, HIV; settings: Human immunodeficiency virus 1, read-out: Drug-resistant viruses EC50, K101E

Compound	HLM t1/2 [1]	EC50 [2]	EC50 [3]	Water-solubility [4]	EC50 (NL4-3 virus)	selectivity ratio at 2 days [5]	CC50 at 4 d [6]	EC50 [7]	solubility [4]	half-life [1]
Cc1cc(CCC#N)cc(C)c1Oc1cc(Nc2ccc(C#N)cc2)c(N)cc1C(F)(F)F [Compound 2, 5-(4″-cyanoethyl-2″,6″-dimethylphenoxy)-N^1-(4′-cyanophenyl)-4-trifluoromethyl-1,2-phenylenediamine]	55.7 min	3.2 nM	34.4 nM	0.33 µg/mL	1.13 nM	> 6280	> 7100 nM	47.6 nM	–	–
COC(=O)c1cc(N)c(Nc2ccc(C#N)cc2)cc1Oc1c(C)cc(CCC#N)cc1C [Compound 4, 5-(4″-cyanoethyl-2″,6″-dimethylphenoxy)-N^1-(4′-cyanophenyl)-4-methoxycarbonyl-1,2-phenylenediamine]	186 min	4.1 nM	7.5 nM	–	4.3 nM	> 5260	> 22700 nM	14 nM	1.21 µg/mL (≈ 2.75 µM)	–
Cc1cc(CCC#N)cc(C)c1Oc1cc(Nc2ccc(C#N)cc2)c(N)cc1CO [Compound 6, 5-(4″-cyanoethyl-2″,6″-dimethylphenoxy)-N^1-(4′-cyanophenyl)-4-hydroxymethyl-1,2-phenylenediamine]	20.9 min	1.8 nM	2.9 nM	–	0.39 nM	61000	> 23800 nM	3.4 nM	18.8 µg/mL (≈ 45.6 µM)	–
COc1cc(CCC#N)cc(Br)c1Oc1ccc(N)c(Nc2ccc(C#N)cc2)n1 [Compound 26A]	–	3.46 nM	6.93 nM	–	3.25 nM	6560	21000 nM	3.89 nM	1.77 µg/mL (≈ 3.81 µM)	54.7 min
N#CCCc1cc(Br)c(Oc2ccc(N)c(Nc3ccc(C#N)cc3)n2)c(Br)c1 [Compound 28]	–	0.74 nM	4.11 nM	–	0.33 nM	24900	8210 nM	7.63 nM	3.26 µg/mL (≈ 6.35 µM)	23 min
Cc1cc(CCC#N)cc(C)c1Oc1cc(Nc2ccc(C#N)cc2)c(N)cc1CNC1CC1 [Compound 34, 5-(4″-cyanoethyl-2″,6″-dimethylphenoxy)-N^1-(4′-cyanophenyl)-4-(2-cyclopropylaminomethyl)-1,2-phenylenediamine]	–	4.88 nM	25.7 nM	–	0.53 nM	> 9430	> 5000 nM	27.3 nM	9.11 µg/mL (≈ 20.2 µM)	42 min
